Results published in patent publication US20250027932A1, “DIFFERENTIATION OF HUMAN TISSUES WITHOUT CILIA FROM PLURIPOTENT STEM CELLS” (University of Washington, priority 2021, published 2025).

Tests used:
Type in all cases: cell-based, human
[1] = system: hedgehog signaling (GLI3, GLI1) in control hPSC kidney organoid cultures; assay: GLI3 and GLI1 immunoblots of kidney organoid cultures from control hPSCs treated with hedgehog modulators
Experimental: (§1) KIF3A^−/−, KIF3B^−/− and isogenic control hPSCs were lysed with RIPA buffer containing protease and phosphatase inhibitors (Roche). Protein concentration was determined using a Pierce BCA protein assay kit. 50 μg of total protein was separated in a 4-20% acrylamide gel (Bio-Rad) and analyzed with silver stain (Bio-Rad) or transferred onto a PDVF membrane using standard procedures. 5% milk was used as a blocking agent prior to and during immunoblotting. Blots were probed with antibodies raised against PC1 (Santa Cruz sc-130554), PC2 (Santa Cruz sc-25749), KIF3A (Abcam ab11259), KIF3B (Cell Signaling 13817), […] (Cell Signaling 4970), FLOT1 (Cell Signaling 18634), IFT88 (Proteintech 13967-1-AP), ARL13B (Proteintech 17711-1-AP), GLI1 (Cell Signaling 3538), GLI2 (Abcam ab26056), PTCH1 (Cell Signaling 8358), ALIX (Cell Signaling 2171), ANXA5 (Cell Signaling 8555), GM130 (Cell Signaling 12480), HPS70 (Cell Signaling 4876), CD9 (Cell Signaling 13174), ICAM-1 (Cell Signaling 4915), and EpCAM (Cell Signaling 2626).
(§2) Kidney organoids were generated as previously described (Freedman, B. S. et al. Modelling kidney disease with CRISPR-mutant kidney organoids derived from human pluripotent epiblast spheroids. Nat Commun 6, 8715 (2015)). Briefly, dissociated hPSCs were plated into 96 or 24 well plates coated with 1% Geltrex (Thermo Fisher) in mTeSR1 (STEMCELL Technologies) supplemented with 10 μM Rho-kinase inhibitor Y27632 (Tocris Bioscience). The next morning, mTeSR1 containing 1.5% Geltrex was added to the wells, and the media was changed again to mTeSR1 24 hours later. 72 hours after plating, cells were treated with 12 μM CHIR99021 (Stemgent) in RPMI medium containing 1× Glutamax (Thermo Fisher) with 2 ng/ml recombinant BMP-4 (Peprotech) to induce kidney differentiation. 36 hours after treatment, the medium was changed to RPMI supplemented with B27 (RB medium, Thermo Fisher). RB medium changes were performed every three days. When indicated, organoid cultures were supplemented with 1 μM SAG or 10 μM Cyclopamine (both from Cayman Chemical) starting with the first addition of RB on day 1.5 (36 hours after CHIR99021 treatment on day 0) and maintained thereafter in RB media containing these compounds at all subsequent time points.
Fluorescence intensity analysis of BRY and OCT4 was performed on images processed and imaged identically, individual cells were identified automatically using Cell Profiler 2.0 and the average intensity per cell was plotted in BBP. Line scan analyses were conducted utilizing the Intensity Profile function in NIS Elements. A single line scan of equal length was performed on each structure, and subsequently these were averaged to generate the graphs, plotting pixel intensity values for each channel on the y-axis against the points along the line on the x-axis. Immunoblot band intensity levels were quantified using the ImageJ magic wand tool, normalized to the loading control, and pooled from multiple experiments to determine average and S.E.M. values. A two-tailed t-test for two samples with unequal variance was applied to determine significance. In cases where a treatment condition was applied, a paired t-test was performed. Statistical analyses were performed in GraphPad Prism 9 software.

[2] = system: hedgehog signaling (GLI3, GLI1) in KIF3A−/− and KIF3B−/− mutants; assay: GLI3 and GLI1 immunoblots of KIF3A−/− and KIF3B−/− kidney organoid cultures treated with hedgehog modulators; settings: for GLI3/GLI1 response to prolonged treatment: day 18, 1 μM SAG or 10 μM cyclopamine starting on day 1.5
Experimental: as §1
Kidney organoids were generated as previously described (Freedman, B. S. et al. Modelling kidney disease with CRISPR-mutant kidney organoids derived from human pluripotent epiblast spheroids. Nat Commun 6, 8715 (2015)). Briefly, dissociated hPSCs were plated into 96 or 24 well plates coated with 1% Geltrex (Thermo Fisher) in mTeSR1 (STEMCELL Technologies) supplemented with 10 μM Rho-kinase inhibitor Y27632 (Tocris Bioscience). The next morning, mTeSR1 containing 1.5% Geltrex was added to the wells, and the media was changed again to mTeSR1 24 hours later. […]
(§3) Fluorescence intensity analysis of BRY and OCT4 was performed on images processed and imaged identically, individual cells were identified automatically using Cell Profiler 2.0 and the average intensity per cell was plotted in BBP. […] Immunoblot band intensity levels were quantified using the ImageJ magic wand tool, normalized to the loading control, and pooled from multiple experiments to determine average and S.E.M. values. […]

[3] = system: kidney organoid cultures derived from control hPSCs; assay: Organoid lineage differentiation in control cultures (immunofluorescence, 96-wells); settings: 1 μM SAG or 10 μM cyclopamine from day 1.5 to day 18
Experimental: as §2
(§4) Cells and organoid cultures were fixed with 4% paraformaldehyde (Electron Microscopy Sciences) for 15 minutes, washed 3 times with Phosphate buffered saline (PBS, Thermo Fisher), blocked for 1 hour with blocking buffer (5% normal donkey serum and 0.3% Triton X-100 in PBS), and incubated overnight with primary antibodies including mouse acetylated α-tubulin (Sigma T7451), rabbit acetylated α-tubulin (Cell Signaling, D20G3), α-fetoprotein (AFP) (R&D MAB1368), α-smooth muscle actin (SMA) (R&D MAB1420), ZO-1 (Invitrogen, 339100), E-Cadherin (Abcam, ab11512), Nephrin (R&D, AF4269), p-Histone H3 (Santa Cruz sc-8656-R), OCT4 (Abcam ab19857), brachyury (BRY) (Santa Cruz sc-17745), SOX2 (Abcam ab97959), and 3-Tubulin III (Tuj1) (Sigma-Aldrich T2200-200UL). After washing with PBS, secondary donkey antibodies conjugated with Alexa-Fluor 488, 555, or 647 (1:500, Thermo Fisher) were applied, or Fluorescein Lotus Lectin (Vector Labs, FL-1321), with DAPI to stain the nuclei. Stained cells were imaged in PBS using a Nikon AIR confocal microscope or Eclipse TE wide-field microscope.

GLI1 in EV of hPSCs = assay: GLI1 immunoblot of extracellular vesicles (EV) from hPSCs ±SAG; settings: SAG stimulation
Experimental: KIF3A^−/−, KIF3B^−/− and isogenic control hPSCs were lysed with RIPA buffer containing protease and phosphatase inhibitors (Roche). Protein concentration was determined using a Pierce BCA protein assay kit. 50 μg of total protein was separated in a 4-20% acrylamide gel (Bio-Rad) and analyzed with silver stain (Bio-Rad) or transferred onto a PDVF membrane using standard procedures. 5% milk was used as a blocking agent prior to and during immunoblotting. […]
as §3

hPSCs = assay: OCT4 and BRY immunofluorescence in hPSCs after CHIR99021; settings: increasing doses of CHIR99021 in mTeSR1 for 48 hours; kinesin-2 knockout hPSCs, no significant difference from controls
Experimental: as §4, with “Stained cells were imaged in PBS using a Nikon AIR confocal microscope or Eclipse TE wide-field microscope.” left out
as §3

[4] = 1 μM SAG starting on day 1.5, by day 4 of differentiation
[5] = day 18, prolonged 16.5 day treatment, 1 μM SAG

## CNC1CCC(N(Cc2cccc(-c3ccncc3)c2)C(=O)c2sc3ccccc3c2Cl)CC1 (stereo not shown) [SAG]
[1]; [4]
  GLI1 levels: increased levels
  GLI3R levels: reduced levels
[1]; [5]
  GLI1: upregulated
  GLI3: strongly downregulated
[2]; 1 μM SAG starting on day 1.5
  effect on GLI3 or GLI1 levels: no detectable effect
[2]
  GLI3/GLI1 response to prolonged treatment: failed to respond
[3]
  Kidney organoid differentiation (nephron organoids per well): impaired
  Neuron differentiation (TUJ1+): significantly suppressed
  SOX2+ neuronal progenitor cells: increased
GLI1 in EV of hPSCs; control or PKD1−/− hPSCs
  GLI1 in EV: increased after SAG stimulation
GLI1 in EV of hPSCs; kinesin-2 knockouts
  GLI1 in EV: undetectable

## CC1=C2C[C@H]3[C@@H](CC=C4C[C@@H](O)CC[C@@]43C)[C@@H]2CC[C@]12O[C@@H]1C[C@H](C)CN[C@H]1[C@H]2C [cyclopamine]
[1]; day 18, 10 μM cyclopamine starting on day 1.5
  GLI3R: modestly increased
[2]
  GLI3/GLI1 response to prolonged treatment: failed to respond
[3]
  Neuron differentiation (TUJ1+): did not reach statistical significance
  SOX2+ neuronal progenitor cells: strong inhibitory effect

## Cc1c[nH]c(-c2cnc(NCCNc3ccc(C#N)cn3)nc2-c2ccc(Cl)cc2Cl)n1 [CHIR99021]
hPSCs
  brachyury (BRY) immunofluorescence: dose-dependent upregulation
